Test results taken from PubChem BioAssay AID743299 (The Scripps Research Institute Molecular Screening Center, 2014).
pIC50: −log10 of the molar value.

Target: methionyl-tRNA synthetase (Trypanosoma brucei brucei)
Experiment: inhibition of trypanosomal methionyl-tRNA synthetase – biochemical, fluorescence polarization, dose response, round 2, orthogonal assay for T. brucei MetRS inhibitor project, late-stage follow-up (AID 743299)
Conditions: recombinant T. brucei MetRS

pIC50: 6.74
Compound: CCN(CC)C(=O)C(=O)c1cn(CC(=O)Nc2cccc(C(F)(F)F)c2)c2ccccc12
